Key:
[1] = test system: EIF2AK4 KD2 (human), Q9P2K8 [S808G]; experiment: KINOMEscan competition binding; conditions: compound 10.0 µM
[2] = molecular target: GSK3A (human) (UniProt P49840); experiment: KINOMEscan competition binding; conditions: compound 10.0 µM
[3] = molecular target: CAMKK1 (human) (UniProt Q8N5S9); experiment: KINOMEscan competition binding; conditions: compound 10.0 µM
[4] = molecular target: RIOK2 (human) (UniProt Q9BVS4); experiment: KINOMEscan competition binding; conditions: compound 10.0 µM
[5] = molecular target: CSNK2A2 (human) (UniProt P19784); experiment: KINOMEscan competition binding; conditions: compound 10.0 µM
[6] = test system: RET (human), P07949 [V804M]; experiment: KINOMEscan competition binding; conditions: compound 10.0 µM
[7] = molecular target: TTK (human) (UniProt P33981); experiment: KINOMEscan competition binding; conditions: compound 10.0 µM
[8] = molecular target: MYLK4 (human) (UniProt Q86YV6); experiment: KINOMEscan competition binding; conditions: compound 10.0 µM
[9] = molecular target: PIM3 (human) (UniProt Q86V86); experiment: KINOMEscan competition binding; conditions: compound 10.0 µM
[10] = molecular target: MAP3K7 (human) (UniProt O43318); experiment: KINOMEscan competition binding; conditions: compound 10.0 µM
MAP3K7 (human), sequence (O43318 whole entry, looked up): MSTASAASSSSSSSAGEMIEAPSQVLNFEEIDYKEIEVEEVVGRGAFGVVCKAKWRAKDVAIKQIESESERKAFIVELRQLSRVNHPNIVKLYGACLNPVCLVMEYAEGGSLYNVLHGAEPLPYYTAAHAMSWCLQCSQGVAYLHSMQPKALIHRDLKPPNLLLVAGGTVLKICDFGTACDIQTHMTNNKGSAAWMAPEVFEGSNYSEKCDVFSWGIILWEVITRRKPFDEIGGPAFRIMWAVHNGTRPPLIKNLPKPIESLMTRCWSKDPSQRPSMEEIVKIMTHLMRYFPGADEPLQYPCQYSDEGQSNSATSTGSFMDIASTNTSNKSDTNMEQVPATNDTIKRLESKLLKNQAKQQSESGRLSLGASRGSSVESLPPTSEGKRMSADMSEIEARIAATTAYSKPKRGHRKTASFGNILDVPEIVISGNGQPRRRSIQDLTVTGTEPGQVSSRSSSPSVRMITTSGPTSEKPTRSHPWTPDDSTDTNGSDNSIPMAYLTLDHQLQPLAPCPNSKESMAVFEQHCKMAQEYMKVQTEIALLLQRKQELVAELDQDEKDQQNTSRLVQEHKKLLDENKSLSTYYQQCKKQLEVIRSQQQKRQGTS

[11] = molecular target: PIP5K1A (human) (UniProt Q99755); experiment: KINOMEscan competition binding; conditions: compound 10.0 µM
[12] = molecular target: MYLK (human) (UniProt Q15746); experiment: KINOMEscan competition binding; conditions: compound 10.0 µM
[13] = molecular target: MINK1 (human) (UniProt Q8N4C8); experiment: KINOMEscan competition binding; conditions: compound 10.0 µM
[14] = test system: FLT3 (human), P36888 [N841I]; experiment: KINOMEscan competition binding; conditions: compound 10.0 µM
[15] = molecular target: ACVR2B (human) (UniProt Q13705); experiment: KINOMEscan competition binding; conditions: compound 10.0 µM
ACVR2B (human), sequence (Q13705 whole entry, looked up): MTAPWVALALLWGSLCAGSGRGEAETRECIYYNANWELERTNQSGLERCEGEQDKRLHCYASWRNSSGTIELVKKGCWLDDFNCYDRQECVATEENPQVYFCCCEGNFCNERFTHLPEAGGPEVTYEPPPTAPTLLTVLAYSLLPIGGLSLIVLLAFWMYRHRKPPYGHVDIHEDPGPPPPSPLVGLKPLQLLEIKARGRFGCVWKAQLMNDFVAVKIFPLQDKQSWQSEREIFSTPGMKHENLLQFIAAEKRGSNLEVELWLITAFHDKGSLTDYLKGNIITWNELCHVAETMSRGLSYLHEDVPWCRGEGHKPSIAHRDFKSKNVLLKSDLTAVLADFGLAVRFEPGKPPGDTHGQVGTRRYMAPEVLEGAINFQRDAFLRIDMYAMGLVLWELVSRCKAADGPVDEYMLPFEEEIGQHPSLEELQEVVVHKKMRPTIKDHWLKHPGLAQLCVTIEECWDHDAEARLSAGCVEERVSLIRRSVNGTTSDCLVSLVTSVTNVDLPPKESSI

[16] = molecular target: CLK4 (human) (UniProt Q9HAZ1); experiment: KINOMEscan competition binding; conditions: compound 10.0 µM
[17] = molecular target: BMP2K (human) (UniProt Q9NSY1); experiment: KINOMEscan competition binding; conditions: compound 10.0 µM
[18] = molecular target: AAK1 (human) (UniProt Q2M2I8); experiment: KINOMEscan competition binding; conditions: compound 10.0 µM
AAK1 (human), sequence (Q2M2I8 whole entry, looked up): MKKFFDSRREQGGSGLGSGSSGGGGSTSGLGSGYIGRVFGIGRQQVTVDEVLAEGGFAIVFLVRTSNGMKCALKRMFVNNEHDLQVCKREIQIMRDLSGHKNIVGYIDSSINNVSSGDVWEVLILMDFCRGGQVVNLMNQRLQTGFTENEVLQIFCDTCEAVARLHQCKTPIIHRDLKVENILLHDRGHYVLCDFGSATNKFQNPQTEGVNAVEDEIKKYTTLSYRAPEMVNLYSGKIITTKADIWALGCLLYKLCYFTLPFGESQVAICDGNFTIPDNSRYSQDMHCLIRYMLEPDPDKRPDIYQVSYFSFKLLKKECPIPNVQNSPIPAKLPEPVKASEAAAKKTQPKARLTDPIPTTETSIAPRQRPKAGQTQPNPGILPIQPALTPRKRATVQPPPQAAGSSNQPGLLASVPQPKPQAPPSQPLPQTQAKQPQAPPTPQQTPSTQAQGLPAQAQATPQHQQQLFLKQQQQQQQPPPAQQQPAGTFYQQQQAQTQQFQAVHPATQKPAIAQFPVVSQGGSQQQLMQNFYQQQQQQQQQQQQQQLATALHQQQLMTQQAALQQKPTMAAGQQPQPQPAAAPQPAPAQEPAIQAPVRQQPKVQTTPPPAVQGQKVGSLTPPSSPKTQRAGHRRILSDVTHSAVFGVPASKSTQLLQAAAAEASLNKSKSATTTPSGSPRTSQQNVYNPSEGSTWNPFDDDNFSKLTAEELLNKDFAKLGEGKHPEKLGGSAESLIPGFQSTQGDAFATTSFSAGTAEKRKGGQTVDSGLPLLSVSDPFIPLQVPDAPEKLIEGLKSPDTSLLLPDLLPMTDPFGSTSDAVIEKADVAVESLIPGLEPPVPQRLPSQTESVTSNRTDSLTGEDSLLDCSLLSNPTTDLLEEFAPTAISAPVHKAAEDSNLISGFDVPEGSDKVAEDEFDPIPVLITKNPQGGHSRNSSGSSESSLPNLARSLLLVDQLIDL

[19] = molecular target: STK17A (human) (UniProt Q9UEE5); experiment: KINOMEscan competition binding; conditions: compound 10.0 µM
STK17A (human), sequence (Q9UEE5 whole entry, looked up): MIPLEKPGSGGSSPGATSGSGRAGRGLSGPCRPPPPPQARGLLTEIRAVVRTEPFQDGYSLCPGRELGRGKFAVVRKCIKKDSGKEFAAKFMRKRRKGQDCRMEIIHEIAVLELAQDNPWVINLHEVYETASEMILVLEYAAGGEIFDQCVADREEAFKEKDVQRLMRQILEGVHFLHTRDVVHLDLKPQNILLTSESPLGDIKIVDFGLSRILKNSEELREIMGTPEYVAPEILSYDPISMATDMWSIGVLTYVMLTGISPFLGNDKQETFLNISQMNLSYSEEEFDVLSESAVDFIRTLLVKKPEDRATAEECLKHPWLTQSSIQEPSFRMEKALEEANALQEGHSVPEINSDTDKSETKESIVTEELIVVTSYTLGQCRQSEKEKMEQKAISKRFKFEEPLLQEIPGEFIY

[20] = molecular target: JAK1 JH2 pseudokinase (human) (UniProt P23458); experiment: KINOMEscan competition binding; conditions: compound 10.0 µM
[21] = test system: FLT3 (human), P36888 [D835H]; experiment: KINOMEscan competition binding; conditions: compound 10.0 µM
[22] = molecular target: PIM2 (human) (UniProt Q9P1W9); experiment: KINOMEscan competition binding; conditions: compound 10.0 µM
PIM2 (human), sequence (Q9P1W9 whole entry, looked up): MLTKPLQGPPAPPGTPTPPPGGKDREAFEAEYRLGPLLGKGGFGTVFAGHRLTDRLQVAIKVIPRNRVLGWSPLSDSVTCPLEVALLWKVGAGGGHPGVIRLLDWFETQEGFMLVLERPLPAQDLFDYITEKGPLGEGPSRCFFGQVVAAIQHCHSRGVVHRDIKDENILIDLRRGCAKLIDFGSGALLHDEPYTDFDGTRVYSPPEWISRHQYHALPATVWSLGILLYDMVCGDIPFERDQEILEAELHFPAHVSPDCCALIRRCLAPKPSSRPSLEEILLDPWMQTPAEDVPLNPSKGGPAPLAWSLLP

[23] = molecular target: RIPK2 (human) (UniProt O43353); experiment: KINOMEscan competition binding; conditions: compound 10.0 µM
[24] = molecular target: MAP4K2 (human) (UniProt Q12851); experiment: KINOMEscan competition binding; conditions: compound 10.0 µM
[25] = molecular target: IRAK3 (human) (UniProt Q9Y616); experiment: KINOMEscan competition binding; conditions: compound 10.0 µM
[26] = molecular target: CLK2 (human) (UniProt P49760); experiment: KINOMEscan competition binding; conditions: compound 10.0 µM
CLK2 (human), sequence (P49760 whole entry, looked up): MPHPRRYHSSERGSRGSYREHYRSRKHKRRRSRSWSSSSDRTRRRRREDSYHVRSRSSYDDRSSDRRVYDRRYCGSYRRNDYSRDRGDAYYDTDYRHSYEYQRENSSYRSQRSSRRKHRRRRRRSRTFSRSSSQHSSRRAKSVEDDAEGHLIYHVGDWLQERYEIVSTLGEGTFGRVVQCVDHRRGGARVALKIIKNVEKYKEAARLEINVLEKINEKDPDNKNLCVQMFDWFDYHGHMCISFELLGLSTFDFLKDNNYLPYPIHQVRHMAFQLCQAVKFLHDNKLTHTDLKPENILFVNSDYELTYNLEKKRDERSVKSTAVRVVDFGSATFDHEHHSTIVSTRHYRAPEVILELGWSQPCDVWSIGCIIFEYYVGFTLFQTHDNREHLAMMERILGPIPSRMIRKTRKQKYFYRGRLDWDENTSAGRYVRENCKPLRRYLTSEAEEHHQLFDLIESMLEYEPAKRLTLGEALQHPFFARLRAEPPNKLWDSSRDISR

[27] = molecular target: TGFBR2 (human) (UniProt P37173); experiment: KINOMEscan competition binding; conditions: compound 10.0 µM
TGFBR2 (human), sequence (P37173 whole entry, looked up): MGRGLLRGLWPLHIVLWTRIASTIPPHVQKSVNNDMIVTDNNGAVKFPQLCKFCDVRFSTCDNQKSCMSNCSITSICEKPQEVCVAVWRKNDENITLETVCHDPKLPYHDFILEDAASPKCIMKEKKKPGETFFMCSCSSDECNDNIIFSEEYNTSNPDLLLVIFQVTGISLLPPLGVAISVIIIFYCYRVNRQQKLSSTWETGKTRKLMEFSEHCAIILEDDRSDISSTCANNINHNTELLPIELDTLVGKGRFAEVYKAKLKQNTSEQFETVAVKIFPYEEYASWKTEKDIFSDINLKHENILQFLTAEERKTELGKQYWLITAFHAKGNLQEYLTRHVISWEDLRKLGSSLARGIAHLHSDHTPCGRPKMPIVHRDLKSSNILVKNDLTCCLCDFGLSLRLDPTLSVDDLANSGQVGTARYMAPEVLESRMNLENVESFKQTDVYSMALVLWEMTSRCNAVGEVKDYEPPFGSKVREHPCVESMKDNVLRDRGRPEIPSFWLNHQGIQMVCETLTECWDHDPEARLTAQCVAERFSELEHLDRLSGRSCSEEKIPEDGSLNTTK

[28] = molecular target: PIP4K2B (human) (UniProt P78356); experiment: KINOMEscan competition binding; conditions: compound 10.0 µM
[29] = molecular target: RIOK1 (human) (UniProt Q9BRS2); experiment: KINOMEscan competition binding; conditions: compound 10.0 µM
[30] = molecular target: CLK1 (human) (UniProt P49759); experiment: KINOMEscan competition binding; conditions: compound 10.0 µM
[31] = molecular target: DAPK1 (human) (UniProt P53355); experiment: KINOMEscan competition binding; conditions: compound 10.0 µM
[32] = molecular target: ACVR2A (human) (UniProt P27037); experiment: KINOMEscan competition binding; conditions: compound 10.0 µM
[33] = molecular target: SRPK3 (human) (UniProt Q9UPE1); experiment: KINOMEscan competition binding; conditions: compound 10.0 µM
[34] = molecular target: MAP2K4 (human) (UniProt P45985); experiment: KINOMEscan competition binding; conditions: compound 10.0 µM
[35] = molecular target: PIM1 (human) (UniProt P11309); experiment: KINOMEscan competition binding; conditions: compound 10.0 µM
PIM1 (human), sequence (P11309 whole entry, looked up): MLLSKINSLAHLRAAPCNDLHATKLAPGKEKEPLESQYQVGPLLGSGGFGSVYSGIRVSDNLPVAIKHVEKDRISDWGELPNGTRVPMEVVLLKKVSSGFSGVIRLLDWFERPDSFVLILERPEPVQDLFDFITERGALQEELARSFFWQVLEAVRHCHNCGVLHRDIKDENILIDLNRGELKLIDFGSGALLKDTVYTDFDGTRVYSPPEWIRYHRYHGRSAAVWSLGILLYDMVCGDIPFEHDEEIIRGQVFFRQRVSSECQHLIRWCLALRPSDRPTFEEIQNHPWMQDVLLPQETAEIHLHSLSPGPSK

[36] = molecular target: STK17B (human) (UniProt O94768); experiment: KINOMEscan competition binding; conditions: compound 10.0 µM
[37] = test system: FLT3 (human), P36888 [D835Y]; experiment: KINOMEscan competition binding; conditions: compound 10.0 µM
[38] = molecular target: CDK7 (human) (UniProt P50613); experiment: KINOMEscan competition binding; conditions: compound 10.0 µM
[39] = molecular target: PLK3 (human) (UniProt Q9H4B4); experiment: KINOMEscan competition binding; conditions: compound 10.0 µM
[40] = test system: FLT3 (human), P36888 [ITD]; experiment: KINOMEscan competition binding; conditions: compound 10.0 µM
[41] = molecular target: DAPK2 (human) (UniProt Q9UIK4); experiment: KINOMEscan competition binding; conditions: compound 10.0 µM
[42] = molecular target: GAK (human) (UniProt O14976); experiment: KINOMEscan competition binding; conditions: compound 10.0 µM
[43] = molecular target: TYK2 JH2 pseudokinase (human) (UniProt P29597); experiment: KINOMEscan competition binding; conditions: compound 10.0 µM
[44] = molecular target: HIPK1 (human) (UniProt Q86Z02); experiment: KINOMEscan competition binding; conditions: compound 10.0 µM
[45] = molecular target: TAOK1 (human) (UniProt Q7L7X3); experiment: KINOMEscan competition binding; conditions: compound 10.0 µM
[46] = molecular target: PIM2 (human) (UniProt Q9P1W9); experiment: SelectScreen, TR FRET
[47] = molecular target: PIM1 (human) (UniProt P11309); experiment: SelectScreen, TR FRET
[48] = molecular target: PAK4 (human) (UniProt O96013); experiment: KINOMEscan competition binding; conditions: compound 10.0 µM
[49] = molecular target: MAP2K3 (human) (UniProt P46734); experiment: KINOMEscan competition binding; conditions: compound 10.0 µM
[50] = molecular target: EPHA3 (human) (UniProt P29320); experiment: KINOMEscan competition binding; conditions: compound 10.0 µM
[51] = molecular target: CAMK2B (human) (UniProt Q13554); experiment: KINOMEscan competition binding; conditions: compound 10.0 µM
[52] = molecular target: CSK (human) (UniProt P41240); experiment: KINOMEscan competition binding; conditions: compound 10.0 µM
[53] = molecular target: RIPK4 (human) (UniProt P57078); experiment: KINOMEscan competition binding; conditions: compound 10.0 µM
[54] = molecular target: PLK4 (human) (UniProt O00444); experiment: KINOMEscan competition binding; conditions: compound 10.0 µM
[55] = molecular target: PAK7 (human) (UniProt Q9P286); experiment: KINOMEscan competition binding; conditions: compound 10.0 µM
[56] = molecular target: MAPK10 (human) (UniProt P53779); experiment: KINOMEscan competition binding; conditions: compound 10.0 µM
[57] = molecular target: CAMK1 (human) (UniProt Q14012); experiment: KINOMEscan competition binding; conditions: compound 10.0 µM
[58] = molecular target: STK16 (human) (UniProt O75716); experiment: KINOMEscan competition binding; conditions: compound 10.0 µM
[59] = molecular target: TAOK3 (human) (UniProt Q9H2K8); experiment: KINOMEscan competition binding; conditions: compound 10.0 µM
[60] = molecular target: MAPK8 (human) (UniProt P45983); experiment: KINOMEscan competition binding; conditions: compound 10.0 µM
[61] = molecular target: PAK6 (human) (UniProt Q9NQU5); experiment: KINOMEscan competition binding; conditions: compound 10.0 µM
[62] = molecular target: DDR1 (human) (UniProt Q08345); experiment: KINOMEscan competition binding; conditions: compound 10.0 µM
[63] = molecular target: LATS2 (human) (UniProt Q9NRM7); experiment: KINOMEscan competition binding; conditions: compound 10.0 µM
[64] = molecular target: PHKG2 (human) (UniProt P15735); experiment: KINOMEscan competition binding; conditions: compound 10.0 µM
[65] = molecular target: DAPK3 (human) (UniProt O43293); experiment: KINOMEscan competition binding; conditions: compound 10.0 µM
[66] = molecular target: CAMK1D (human) (UniProt Q8IU85); experiment: KINOMEscan competition binding; conditions: compound 10.0 µM

GSK3A (human), sequence (P49840 whole entry, looked up): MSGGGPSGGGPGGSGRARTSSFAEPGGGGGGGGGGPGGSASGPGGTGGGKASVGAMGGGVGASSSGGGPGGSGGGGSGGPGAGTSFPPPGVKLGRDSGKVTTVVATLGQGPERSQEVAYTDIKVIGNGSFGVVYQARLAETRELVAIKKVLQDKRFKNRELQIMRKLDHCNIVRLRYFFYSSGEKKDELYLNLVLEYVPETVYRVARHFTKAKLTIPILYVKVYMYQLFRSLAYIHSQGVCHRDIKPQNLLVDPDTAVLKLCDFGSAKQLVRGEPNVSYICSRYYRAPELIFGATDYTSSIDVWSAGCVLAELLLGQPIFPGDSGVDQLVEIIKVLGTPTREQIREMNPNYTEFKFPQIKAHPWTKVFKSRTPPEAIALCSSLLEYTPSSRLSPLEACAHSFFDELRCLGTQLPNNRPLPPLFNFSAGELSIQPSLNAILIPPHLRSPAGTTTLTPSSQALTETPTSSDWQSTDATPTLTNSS

N=C1NC(=O)/C(=C/c2ccc(-c3cnc4ccccc4c3)o2)S1
kinase still bound, per cent of control [1]: 26%
kinase still bound, per cent of control [2]: 17%
kinase still bound, per cent of control [3]: 27%
kinase still bound, per cent of control [4]: 9.2%
kinase still bound, per cent of control [5]: 5.5%
kinase still bound, per cent of control [6]: 10%
kinase still bound, per cent of control [7]: 25%
kinase still bound, per cent of control [8]: 13%
kinase still bound, per cent of control [9]: 3.2%
kinase still bound, per cent of control [10]: 12%
kinase still bound, per cent of control [11]: 19%
kinase still bound, per cent of control [12]: 24%
kinase still bound, per cent of control [13]: 16%
kinase still bound, per cent of control [14]: 29%
kinase still bound, per cent of control [15]: 21%
kinase still bound, per cent of control [16]: 20%
kinase still bound, per cent of control [17]: 8%
kinase still bound, per cent of control [18]: 6.3%
kinase still bound, per cent of control [19]: 0.55%
kinase still bound, per cent of control [20]: 20%
kinase still bound, per cent of control [21]: 18%
kinase still bound, per cent of control [22]: 1.4%
kinase still bound, per cent of control [23]: 25%
kinase still bound, per cent of control [24]: 20%
kinase still bound, per cent of control [25]: 24%
kinase still bound, per cent of control [26]: 9.8%
kinase still bound, per cent of control [27]: 9.2%
kinase still bound, per cent of control [28]: 20%
kinase still bound, per cent of control [29]: 15%
kinase still bound, per cent of control [30]: 15%
kinase still bound, per cent of control [31]: 22%
kinase still bound, per cent of control [32]: 34%
kinase still bound, per cent of control [33]: 22%
kinase still bound, per cent of control [34]: 33%
kinase still bound, per cent of control [35]: 8.3%
kinase still bound, per cent of control [36]: 2.3%
kinase still bound, per cent of control [37]: 8.4%
kinase still bound, per cent of control [38]: 5.8%
kinase still bound, per cent of control [39]: 29%
kinase still bound, per cent of control [40]: 22%
kinase still bound, per cent of control [41]: 30%
kinase still bound, per cent of control [42]: 2.6%
kinase still bound, per cent of control [43]: 1.1%
kinase still bound, per cent of control [44]: 0.1%
kinase still bound, per cent of control [45]: 34%
IC50 [46]: 504 nM
IC50 [47]: > 1110 nM

Cc1cn(-c2cc(NC(=O)c3cccc4cc(-c5ccc(/C=C6\SC(=N)NC6=O)o5)ccc34)cc(C(F)(F)F)c2)cn1
kinase still bound, per cent of control [2]: 32%
kinase still bound, per cent of control [48]: 29%
kinase still bound, per cent of control [49]: 20%
kinase still bound, per cent of control [5]: 34%
kinase still bound, per cent of control [7]: 18%
kinase still bound, per cent of control [9]: 1.9%
kinase still bound, per cent of control [10]: 13%
kinase still bound, per cent of control [12]: 21%
kinase still bound, per cent of control [50]: 32%
kinase still bound, per cent of control [51]: 29%
kinase still bound, per cent of control [52]: 30%
kinase still bound, per cent of control [15]: 24%
kinase still bound, per cent of control [53]: 1%
kinase still bound, per cent of control [18]: 26%
kinase still bound, per cent of control [19]: 2.4%
kinase still bound, per cent of control [22]: 0.5%
kinase still bound, per cent of control [26]: 21%
kinase still bound, per cent of control [27]: 11%
kinase still bound, per cent of control [54]: 1%
kinase still bound, per cent of control [55]: 34%
kinase still bound, per cent of control [56]: 16%
kinase still bound, per cent of control [31]: 32%
kinase still bound, per cent of control [57]: 20%
kinase still bound, per cent of control [58]: 22%
kinase still bound, per cent of control [59]: 5.6%
kinase still bound, per cent of control [35]: 1.8%
kinase still bound, per cent of control [60]: 14%
kinase still bound, per cent of control [36]: 0.6%
kinase still bound, per cent of control [61]: 30%
kinase still bound, per cent of control [41]: 7.1%
kinase still bound, per cent of control [62]: 22%
kinase still bound, per cent of control [63]: 31%
kinase still bound, per cent of control [64]: 29%
kinase still bound, per cent of control [42]: 28%
kinase still bound, per cent of control [65]: 15%
kinase still bound, per cent of control [43]: 2.6%
kinase still bound, per cent of control [66]: 29%
kinase still bound, per cent of control [44]: 0.15%
kinase still bound, per cent of control [45]: 5.8%
IC50 [46]: 662 nM
IC50 [47]: 5050 nM

Source: the kinase profiling compilation of Christmann-Franck et al. (2016)
